Assay results published in US20210236577A1, “LIVESTOCK FEED ADDITIVE” (DELACON BIOTECHNIK GMBH, priority 2018, published 2021).
Where two headings read alike, the source gives them in different places.

How the values were obtained:
heat shock protein HSP70 = type: cell-based, Human
From the text: ID NO:1); β-actin reverse: [NT] NO:2); HSP70 forward: [NT] ID NO:3); HSP70 reverse: [NT] ID NO:4).

[1] = test system: broilers exposed to heat stress; assay: Trial IV: growth performance of broilers under heat stress, naringin dose levels vs betaine; type: in vivo, Ross 308 male broilers; settings: for effect on body weight and daily body weight gain vs negative control: pre-heat stress period d 0 to 21
From the text: 1152 one-day old Ross 308 male broilers from a total of 1400 were used in the experiment. Any day-old broilers, showing signs of health problems, injury, or of being too small or in poor condition were excluded in the selection process. Broilers were sexed at the hatchery. All day-old chicks were individually weighted and grouped according to weight. The birds were then assigned to the 36 pens (6 repetitions of 6 treatments), and each pen initially consisted of 34 broilers. On day 4 of the experiment in each pen, the weakest 2 broilers were removed and all pens were equated to 32 birds per pen by negative selection. Birds of the negative control group were fed the basal diet without any further phytogenic additive. The reference group was fed a diet providing 500 mg/kg feed betaine from a natural betaine source (Actibeet®, Agrana). To the diets of groups 3, 4, 5 and 6 the phytogenic premixes with compound “B” were added to achieve final dietary Naringin concentrations of 12/18/24/30 mg/kg of feed.
The trial was carried out at the Delacon Research Facility (Stošíkovice na Louce, Czech Republic). Birds were kept in floor pens, each having an area of 2.1 m^2 (1,65×1,275 m; 2.03 m^2 of usable area=not counting the space occupied with the feeder), with fresh wood shavings as bedding material. Stocking density at the end of the trial was 14,78 chicks/m^2 (38.7 kg/m^2). The building was supplied with artificial, programmable lights, automated central heating and forced ventilation. Temperature was set according to the breeders' recommendations from day 1 to day 21 of age. The onset of heat stress was on day 22 of age. Thereby a cyclic heat stress regime was applied. The heat stress period was from 09:00 in the morning until 17:00 in the afternoon. The average house temperature in this period was 34° C. The “cooling night period” was from 19:00 in the evening until 07:00 in the morning. The average room temperature in this period was 26° C. The time intervals from 07:00 to 09:00 in the morning and from 17:00 to 19:00 in the evening was used to gradually increase or decrease the temperature to 34° C. and 26° C., respectively. In order to increase the humidity of the chicken house under the heat stress regime, towels on the heat panels were moistened 5 times per hour during the heat stress period. Relative humidity was maintained at about 70-80%.
Birds were fed a basal diet, based on wheat, corn, and soybean meal. For each feeding period (starter/grower, grower/finisher) feed was calculated to be iso-nutritive (Table 6). Dietary nutrient concentrations were calculated to fulfill the current recommendations of the broilers according to the breeders' recommendations. According to the applied 2-phase-feeding, a starter/grower diet was offered from days 1 to 21 and a grower/finisher diet from days 22 to 42. The composition of the diets, used in trials IV, V, VI, for the single phases and the calculated nutrient contents are given in Table. All diets were offered to the birds as pelleted feed.
The statistical analyses were performed with the software package SAS. After checking the homogeneity of the data, means were compared by the usual test procedures (Tukey test). Statistical significance was declared at P 0.05, with 0.05<P 0.10 considered as a near-significant trend.

[2] = test system: broilers exposed to heat stress; assay: Trial V: growth performance of broilers under heat stress, combinations of naringin with different 1,8-cineole concentrations; type: in vivo, Ross 308 male broilers
Method: In the dose response trial for compound “B” (Trial IV) beneficial effects on the performance of the broilers under heat stress could be observed. […] Consequently in this trial the additional value of adding 1,8-Cineole (compound “A”) in a dose-dependent manner (6/12/24 mg/kg feed) to compound “B” at constantly 12 mg Naringin/kg diet was evaluated. The addition of 500 mg/kg betaine alone or 500 mg betaine+12 mg 1,8-Cineole/kg served as reference groups.
1224 one-day old Ross 308 male broilers from a total of 1400 were used in the experiment. Any day-old broilers, showing signs of health problems, injury, or of being too small or in poor condition were excluded in the selection process. Broilers were sexed at the hatchery. All day-old chicks were individually weighted and grouped according to weight. The birds were then assigned to the 36 pens (6 repetitions of 6 treatments), and each pen initially consisted of 34 broilers. On day 4 of the experiment in each pen, the weakest 2 broilers were removed and all pens were equated to 32 birds per pen by negative selection.
Birds of the negative control group were fed the basal diet without any further phytogenic additive. […]

CC12CCC(CC1)C(C)(C)O2 [A, 1,8 Cineole] was tested, and the “increase in HSP 70 induction compared to control cells” value (heat shock protein HSP70; CaCo2, 41° C. 1 hour, 7.5 mg 1,8 Cineole/L) was 15%, the “increase of HSP 70 gene expression” value (heat shock protein HSP70; CaCo2, 41° C. 1 hour, 15 mg 1,8-Cineole/L) was 22% and the “increase of HSP 70 gene expression” value (heat shock protein HSP70; CaCo2, 41° C. 1 hour, 30 mg 1,8-Cineole/L) was 24%. For the same compound, the “increase of HSP 70 expression” value (heat shock protein HSP70; CaCo2, 41° C. 1 hour, highest dose tested, 45 mg 1,8-Cineole/L) was 44% and the “increase of HSP 70 expression / induction, single substances alone vs combination (FIG. 3 E)” value (heat shock protein HSP70; CaCo2 under heat stress, at the tested levels (not given)) was 20.8%.
C[C@@H]1O[C@@H](O[C@H]2[C@H](Oc3cc(O)c4c(c3)O[C@H](c3ccc(O)cc3)CC4=O)O[C@H](CO)[C@@H](O)[C@@H]2O)[C@H](O)[C@H](O)[C@H]1O [B, Naringin] was tested, and the “performance values (body weight/weight gain/FCR) vs betaine reference group” value ([1]; broilers under heat stress, 12 mg/kg Naringin complete diet vs 500 mg/kg betaine) was “slightly better than in the betaine reference group”, the “body weight at day 42 compared with untreated control” value ([1]; heat stress d22 to 42, compound B groups 12-30 mg/kg) was “+80 to +140 g” and the “final body weight compared to the negative control” value ([1]; heat stress d22 to 42, lowest compound B dose (12 mg/kg)) was “+140 g”. For the same compound, the “effect on body weight and daily body weight gain vs negative control” value (“effect … vs negative control” below) ([1]; all doses 12, 18, 24 and 30 mg/kg diet) was “+2.79 to +13%”, the “effect … vs negative control” value ([1]; lowest dose 12 mg/kg, significant) was “+13%” and the “HSP 70 induction compared to untreated control cells” value (heat shock protein HSP70; CaCo2, 41° C. 1 hour, 60 mg Naringin/L, adverse effect) was −23%. The “increase in HSP 70 induction compared to untreated control cells” value (heat shock protein HSP70; CaCo2, 41° C. 1 hour, Naringin 12 to 30 mg/L, significant) was “+24 to +27%” and the “increase of HSP 70 induction compared to untreated control cells” value (heat shock protein HSP70; CaCo2, 41° C. 1 hour, lowest Naringin concentration tested (6 mg/L), not significant) was “+16%”.
C[N+](C)(C)CC(=O)[O-] [betaine, N,N,N-Trimethylammonioacetate, reference compound] was tested, and the “increase of daily weight gain compared to the negative control” value ([2]; pre-heat stress period, betaine 500 mg/kg alone or plus 12 mg/kg compound A) was 2.5%, the “growth promoting effect / increase of growth performance compared to the negative control” value ([2]; under heat stress conditions d22 to 42, betaine 500 mg/kg, all tested combinations AB) was “+2.0%” and the “body weight at day 42 compared with untreated control” value ([1]; heat stress d22 to 42, betaine 500 mg/kg) was “+170 g”. For the same compound, the “effect … vs negative control” value ([1]; betaine 500 mg/kg) was “+4.9%”, the “heat shock protein 70 induction compared to untreated control cells” value (heat shock protein HSP70; CaCo2, 41° C. 1 hour, 100, 250 and 1000 mg/L betaine) was −7 to −19% and the “heat shock protein 70 response compared to untreated control cells” value (heat shock protein HSP70; CaCo2, 41° C. 1 hour, 500 and 2000 mg/L betaine, non-significant) was “+10 to +12%”.
In the case of Betalain [C], the “HSP 70 induction in CaCo2 cells over the control (in words)” value (heat shock protein HSP70; Caco-2) is reported as “improve HSP 70 induction”.
